# In patent publication US9212196B2, “Hypophosphorous acid derivatives having antihyperalgic activity and biological applications thereof” (UNIVERSITE PARIS DESCARTES, priority 2011, dated 2015):
# Test system: CCI neuropathic pain model
# Test: Paw pressure test in CCI neuropathic pain model in rats
# Assay type: in vivo, rat
# Conditions: FIG. 7 legend, model not named
# Experimental: After the induction period of the neuropathy or inflammation, various amounts of derivative 2 dissolved in serum have been injected in rats, (from 0.5 to 15 μg/rat, i.t. from 1 to 30 mg/kg, i.p.) on time-course of vocalization threshold to paw pressure. The results obtained on healthy animals are given on FIG. 1. They are expressed by the time course curves of means+/-SEM of vocalization threshold in grams (n=6-8 rats per group) (A) or by the area under the curve (B). Morphine (10 μg/rat, i.t.) is used as a positive control. […] FIG. 4 illustrates the effect of intrathecal administration of derivative 2 on the vocalization threshold to paw pressure in the CCI neuropathic pain model (effect of derivative 2 (1, 5, 10 μg/rat, i.t.) on time-course of vocalization threshold to paw pressure). Gabapentin (100 mg/kg, p.o.) is used as a positive control. […] The effect of intrathecal administration of derivative 2 (10 μg/rat, i.t.) on the vocalization threshold to paw pressure in the CCI neuropathic pain model after mGluR4 or mismatch ODN treatment is illustrated by FIG. 4. […] The animals were submitted to the paw pressure test previously described by Randall and Selitto (1957). Nociceptive thresholds, expressed in grams (g), were measured with a Ugo Basile analgesimeter (Apelex, tip diameter of the probe: 1 mm, weight: 30 g) by applying an increasing pressure to the right hind paw of rats until a squeak (vocalization threshold) was obtained (cut-off was 750 g except carrageenan treated animals for which the cut-off was 500 g). The treatments were done after the measurement of two consecutive stable vocalization threshold values and their effects were assessed 15, 30, 45, 60, 90, and 120 min after. Unilateral peripheral mononeuropathy was induced according to the method described by Bennett and Xie (1988). Briefly, after determining vocalization thresholds, rats were anesthetized with sodium pentobarbital (50 mg/kg i.p.) and four chromic gut (5-0) ligatures were tied loosely (with about 1-mm spacing) around the right common sciatic nerve. The nerve was constricted to a barely discernible degree, so that circulation through the epineurial vasculature was not interrupted. Only animals presenting a decrease ≧15% of the presurgery value of vocalization threshold were selected, i.e., 90% of ligated animals (presurgery value: 379±7 g, pre-drug value: 188±7 g). Intrathecal injections were performed, under isoflurane anesthesia (4% induction, 2% maintenance), as previously described (Mestre et al., 1994). Briefly, the anesthetized rat was held in one hand by the pelvic girdle and a 25-gauge X1-inch needle connected to a 25 μL Hamilton syringe was inserted into the subarachnoidal space between lumbar vertebrae L5 and L6, until a tail flick was elicited. The syringe was held in position for few seconds after the injection of a volume of 10 μL/rat. AS ODN was designed based on rat mGluR4 sequence in regions lacking known splice variants. […]. One ODN with scramble arrangement in the base composition compared to the 18-mer specific as was used as control for sequence-independent effects of ODN treatments. […] Pain scores were determined using standard methods in strict conformity with ethical standards (Zimmermann M., 1983) before ODN treatments and then on day 4 in the afternoon. […]
smiles,measurement,value
"NC1(C(=O)O)C[C@H](C(=O)O)[C@H](C(=O)O)C1 (stereo partly shown) [ACPT-I, reference compound]",mechanical antihyperalgesia after knockdown of spinal mGlu4 expression by antisense oligonucleotides,reduces mechanical antihyperalgesia
